From publication PMC6675714 (Cancer Medicine, 2019)
“And” between values parts separate entries of the source, which are not always exact repeats. Equal values may be shown once. “Also recorded” adds a separate entry of the source.

Tests used:
xenograft Caki‐1 tumors = assay: Xenograft renal cancer intervention (efficacy) trial; type: in vivo, NOD.CB17‐Prkdc SCID/J mice; settings: 10 mg/kg/72h ip
Excerpt: Tissue samples were processed as described above and analyzed for Ru and Au content using ICP‐MS
Percent of change in tumor burden in a cohort of 3 females and 3 males NOD.CB17‐Prkdc scid/J mice inoculated subcutaneously with 5 × 10^6 Caki‐1 cells. The treatment started when tumors were palpable (~5 mm diameter). […] (A) Representative histological samples of tumors resected from each treatment group.

[1] = Hematology values (complete blood count) after the trial; type: in vivo, NOD-SCID mice
Procedure: Supplementary Table 2. Summary of hematology values (mean) for three specimens (collected 72h after the last dose of 10mg/kg/72h at the end of a 21 day trial (NOD/LtSz-Prkdscid/j. Complete blood counts of each group (n = 3 mice per group). Heparinized blood acquired from mice was assessed using the automatic Hematology Analyzer. Blood smears were carried out and fixed with methanol, stained, and observed under the microscope to carry out differential blood white cell counts.

[2] = Body and organ weights at necropsy after the trial; type: in vivo, NOD.CB17‐Prkdc scid/J mice
[3] = Plasma chemistry parameters after the trial; type: in vivo, tumor bearing NOD-SCID mice
Procedure: Supplementary Table 1. Summary of plasma chemistry parameters metabolic analytes for three specimens (collected 72h after the last dose of 10mg/kg/72h at the end of a 21 day trial) from 3 tumor bearing NOD-SCID (NOD/LtSz-Prkdscid/j. The study criteria reflect pathological criterion used in clinical studies. Metabolic markers were quantified from freshly isolated plasma and compared to reference range.

[4] = Plasma pharmacokinetics after single ip injection (Ru by ICP‐MS); type: in vivo
Procedure: Blood was collected from submandibular vein using a heparin coated glass capillary into heparinized blood collection tubes on ice at time intervals of 1, 2, 6, 12, 24, 48, and 72 hours post injection. Plasma was harvested by centrifuging blood samples at 2800 rpm for 15 minutes at 4°C and stored frozen at − 80°C until analysis. Similarly, kidney, liver, and tumor were harvested after final time point, weighed, and stored into glass vials. One mL of deionized water was added to each tissue sample, subjected to ultrasonic homogenization at 15 W power for 1 minute, followed by lyophilization.
Plasma and tissue concentrations of Ru and Au were measured using inductively coupled plasma–mass spectrometry (ICP‐MS). Plasma (10 μL) or tissue samples were transferred into glass vials, and 1 mL of a 75:25 mixture of nitric acid (16 N) and hydrochloric acid (12 N) was added to each vial. The mixture was then heated at 90°C for 5 hours. After cooling to room temperature, the samples were centrifuged to remove debris if any. All samples were then mixed with 40 ppb of indium internal standard and analyzed using a Thermo Scientific XSERIES 2 ICP‐MS coupled with ESI PC3 Peltier cooled spray chamber, SC‐FAST injection loop, and SC‐4 autosampler. All the elements were measured using He/H2 collision‐reaction mode.
Pharmacokinetic parameters were obtained from the plasma concentration–time profiles by noncompartmental analysis using Phoenix WinNonlin 6.4 version 6.4 (Pharsight Corporation, Mountain View, CA). The pharmacokinetic parameters quantified were the maximum plasma drug concentration (Cmax), the time to reach Cmax (Tmax), the area under the plasma concentration–time curve from 0 hour to last measurable concentration (AUClast), elimination rate constant (ke), plasma half‐life (t1/2), apparent total clearance of the drug from plasma (Cl/F), and apparent volume of distribution (Vd/F). Concentrations of ruthenium and gold in liver, kidney, and tumors were also determined.

Caki‐1 xenograft tumors = assay: Protein expression in tumor lysates (Proteome Profiler arrays); type: in vivo, NOD.CB17‐Prkdc SCID/J mice; settings: tumor lysate, 21‐day trial, vs vehicle
Procedure: Whole tumors were extracted at the trial endpoint and lysed. Before application to the array, protein concentration was determined by BCA. Then 150 µg of lysate was incubated for 24 hours with the Proteome Profiler Human XL Oncology Array (ARY026, R&D Systems) and Human Cell Stress Array (ARY018, R&D Systems). The relative expression levels of the proteases were determined according to the manufacturer's protocol, and signal intensities were compared using HLImage^++ software.

[5] = automatic count, blood 72h after last dose, 21 day trial, mean n = 3
[6] = 21 day course once/72h, mean and SEM, n = 3
[7] = Supplementary Table 3, end of trial
[8] = plasma 72h after last dose of 10mg/kg/72h, 21 day trial

Substance: [Cl2(p‐cymene)Ru(μ‐dppm)Au(IMes)]ClO4 [RANCE‐1]
- Weight and well‐being during the trial (xenograft Caki‐1 tumors; 21 days): no significant change in weight or any decline in the well‐being
- Tumor burden after treatment (xenograft Caki‐1 tumors; 21 days of treatment, total of 7 doses): no change in tumor burden
- RBC ([1]; automatic count, blood 72h after last dose of 10mg/kg/72h, 21 day trial, mean n = 3, reference range 7.84-10.84): 10.31 M/uL
- PDW [1, 5]: 7.5 fL
- RDW-SD [1, 5]: 31.03 fL
- RET ([1]; automatic count, blood 72h after last dose, 21 day trial, mean n = 3, reference range 2.56-4.56, marked *▾): 2.03%
- MPV ([1]; automatic count, blood 72h after last dose, 21 day trial, mean n = 3, reference range 4.2-6.3): 6.53 fL
- HGB ([1]; automatic count, blood 72h after last dose, 21 day trial, mean n = 3, reference range 11.8-17.6): 15.8 g/dL
- MCH ([1]; automatic count, blood 72h after last dose, 21 day trial, mean n = 3, reference range 13.7-17.2): 15.37 pg
- RDW-CV ([1]; automatic count, blood 72h after last dose, 21 day trial, mean n = 3, reference range 17.3-20.3): 23.5%
- MCHC ([1]; automatic count, blood 72h after last dose, 21 day trial, mean n = 3, reference range 25.1-31.3): 29.9 g/dL
- HCT ([1]; automatic count, blood 72h after last dose, 21 day trial, mean n = 3, reference range 44.1-58.3): 52.8%
- MCV ([1]; automatic count, blood 72h after last dose, 21 day trial, mean n = 3, reference range 51.1-58.6): 51.3 fL
- RET# ([1]; automatic count, blood 72h after last dose, 21 day trial, mean n = 3, reference range 294-444, marked *▾): 192.67 K/uL
- PLT ([1]; automatic count, blood 72h after last dose, 21 day trial, mean n = 3, reference range 651-2055, marked *▾): 1056.67 K/uL
- Morphology (manual differential section) ([1]; blood smears, end of 21 day trial): Many neutrophils are hypersegmented.
- Morphology (automatic count section) ([1]; blood smears, three specimens, end of 21 day trial): 2+ PLT clumps. RBC morphology is within normal limits. 4+ polychromasia. 2+ acanthocytes. 4+ polychromasia. 2+ acanthocytes.
- Physicochemical study and complete blood count ([1]; end of trial): no significant changes
- Band# ([1]; manual differential, blood 72h after last dose, 21 day trial): 0 K/uL
- MONO# ([1]; manual differential, blood 72h after last dose, 21 day trial, reference range 0.03-0.26): 0 K/uL
- LYMPH# ([1]; manual differential, blood 72h after last dose, 21 day trial, reference range 0.23-1.56, marked *▴): 0.6167 K/uL
- Neut# ([1]; manual differential, blood 72h after last dose, 21 day trial, reference range 0.54-3.16, marked *▴, ◎): 8.55 K/uL
- MONO ([1]; manual differential, blood 72h after last dose, 21 day trial, reference range 1.71-10.93, marked *▾): 2%
- LYMPH ([1]; manual differential, blood 72h after last dose, 21 day trial, reference range 13.51-42.61, marked *▾): 15.67%
- NEUT ([1]; manual differential, blood 72h after last dose, 21 day trial, reference range 44.21-79.92, marked *▴): 80.67%
- Average weight: Average Kidney [2, 6]: 0.17 ± 0.06 g
- Average weight: Body [2, 6]: 21.31 ± 5.1 g
- Average weight: Heart [2, 6]: 0.11 ± 0.05 g
- Average weight: Liver [2, 6]: 1.15 ± 0.37 g
- Average weight: Spleen [2, 6]: 0.04 ± 0.017 g
- Body weight [2, 7]: 18.731 g
- Heart weight [2, 7]: 0.078 g
- Left Kidney weight [2, 7]: 0.148 g
- Liver weight [2, 7]: 0.974 g
- Right Kidney weight [2, 7]: 0.140 g
- Spleen weight [2, 7]: 0.035 g
- Total body weight or organ weight, treated vs control mice ([2]; end of the trial): no notable difference
- Clinical chemistry, treated vs control animals ([3]; end of trial): no differences
- Kidney health indicators ([3]; end of trial): within normal values
- DBIL [3, 8]: 0.033 mg/dL
- GGT [3, 8]: 0 U/L
- IBIL [3, 8]: 0.2 mg/dL
- TCO2 [3, 8]: 18 mEq/L
- Anion Gap ([3]; plasma 72h after last dose of 10mg/kg/72h, 21 day trial, marked *▴): 37.63
- CREA ([3]; plasma 72h after last dose of 10mg/kg/72h, 21 day trial, reference range 0.2-0.5): 0.117 mg/dL
- TBIL ([3]; plasma 72h after last dose of 10mg/kg/72h, 21 day trial, reference range 0.2-0.6): 0.23 mg/dL
- GLOB ([3]; plasma 72h after last dose of 10mg/kg/72h, 21 day trial, reference range 1.7-2.2): 2.63 g/dL
- ALB ([3]; plasma 72h after last dose of 10mg/kg/72h, 21 day trial, reference range 2.4-4.3): 2.57 g/dL
- ALT ([3]; plasma 72h after last dose of 10mg/kg/72h, 21 day trial, reference range 27-195): 170.66 U/L
- AST ([3]; plasma 72h after last dose of 10mg/kg/72h, 21 day trial, reference range 54-77): 394.67 U/L
- CHOL ([3]; plasma 72h after last dose of 10mg/kg/72h, 21 day trial, reference range 55-169): 87.67 mg/dL
- TRIG ([3]; plasma 72h after last dose of 10mg/kg/72h, 21 day trial, reference range 67-289, marked *▾): 116 mg/dL
- ALP ([3]; plasma 72h after last dose of 10mg/kg/72h, 21 day trial, reference range 105-370, marked *▾): 39.33 U/L
- Cl ([3]; plasma 72h after last dose of 10mg/kg/72h, 21 day trial, reference range 111-134): 106 mEq/L
- GLU ([3]; plasma 72h after last dose of 10mg/kg/72h, 21 day trial, reference range 172-372, marked *▾): 165 mg/dL
- Time to reach steady state ([4]; 10 mg/kg ip): 203.8 ± 93.4 h
- AUC0‐72h ([4]; 10 mg/kg single ip, plasma): 792.9 ± 270.3 µg·h/mL
- Cl/F ([4]; 10 mg/kg single ip, plasma): 0.1667 ± 0.0525 mL/min/kg
- Cmax ([4]; 10 mg/kg single ip, plasma): 22600 ± 2580 ng/mL
- Vd/F ([4]; 10 mg/kg single ip, plasma): 0.6121 ± 0.429 L/kg
- t1/2 ([4]; 10 mg/kg single ip, plasma): 40.8 h and 40 h and 40.77 ± 18.67 h
- Tmax ([4]; 10 mg/kg single ip, plasma Ru): 10.00 ± 3.46 h
- Cminss ([4]; predicted, based on a dose of 10 mg/kg every 72 h): 7170 ± 3910 ng/mL
- CCL7 and CCL8 levels (Caki‐1 xenograft tumors): decrease
- Expression of CapG protein (Caki‐1 xenograft tumors): suppressed
- Expression of HIF‐1a, ICAM, VE‐Cadherin, and VCAM‐1 (Caki‐1 xenograft tumors): significantly decreased
- Expression of growth factors VEGF, PDGF, FGF, EGFR, and HGRF (Caki‐1 xenograft tumors): Significant reduction; also recorded: decrease
- Expression of immune factors IL‐2R and GM‐CSF (Caki‐1 xenograft tumors): increase
- M‐CSF expression (Caki‐1 xenograft tumors): increase
- Prometastatic factors CtsB, CtsS, FoxC2, MMP‐2, MMP‐3, MMP‐8, ADAM8, and ADAMP9 (Caki‐1 xenograft tumors): significant decrease
